Assay results from ChEMBL document CHEMBL5370633, “Anti-cancer Effect of a Planar Catechin Analog through the Decrease in Mitochondrial Membrane Potential” (ACS Med Chem Lett, 2023).
Calls of active or inactive are those of the source. No cut-off for these calls is given here.

Experiments:
RGK1 [1] = assay: Antiproliferative activity against rat RGK1 cells assessed as reduction in viability at 100 to 100 uM after 24 hrs by CCK-8 assay; assay type: functional, cell-based; settings: dose 100-100 µM
RGK1 [2] = assay: Induction of mitochondrial membrane potential loss in rat RGK1 cells at 200 uM after 24 hrs by MitoTracker Red CMXRos fluorescence microscopic analysis; assay type: functional, cell-based
[3] = Cytotoxicity against rat RGM1 cells assessed as reduction in viability at 100 to 100 uM after 24 hrs by CCK-8 assay; assay type: toxicity, cell-based; settings: rgm1, 24 h, dose 100-100 µM

Question: Which Activity (RGK1 [1]) does the source give for CC1(C)O[C@H]2Cc3c(O)cc(O)cc3O[C@@H]2c2cc(O)c(O)cc21 here?
Answer: The Activity was “Active”.

Question: What about the Activity (RGK1 [2]) of the same compound?
Answer: Its Activity is “Active”.

Question: What about the Activity [3] of the same compound?
Answer: The Activity was “Toxic”.
